Measured values reported in patent US20230065562A1, “DUAL CONTROLS FOR THERAPEUTIC CELL ACTIVATION OR ELIMINATION” (Bellicum Pharmaceuticals, Inc., priority 2015, published 2023).

What was measured:
293 cells = assay: SEAP assay: iMC (tandem FKBP) scaffold plus FRBL2-Caspase-9; type: cell-based; details: tandem FKBPs (iMC) present
Description: FIGS. 16A and 16B are line graphs showing that tandem FKBP scaffold mediates FRBL2. Caspase activation in the presence of rapalogs. FIG. 16A. HEK-293 cells were transfected with 1 μg each of SRα-SEAP reporter plasmid, Δmyr.iMC.2A-anti-CD19.CAR.CD3ζ (pBP0608), and FRBL2. Caspase-9 (pBP0467). […] After ON incubation, cell supernatants were assayed for SEAP activity, as previously described. FIG. 16B. Similar to the experiment described in (FIG. 16A), except that cells were transfected with a membrane-localized (myristoylated) iMC.2A-CD19.CAR.CD3ζ (pBP0609), instead of non-myristoylated Δmyr.iMC.2A-CD19.CAR.CD3ζ (pBP0608).
In a second test for rapalog-mediated scaffold-based activation of Caspase-9, 293 cells were transiently transfected with SRα-SEAP reporter plasmid, plus myristoylated or non-myristoylated inducible iMC co-expressed with 1st generation anti-CD19 CAR, plus FRBL2-fused Caspase-9 (plasmid pBP0467) (FIG. 16).

293T cells = assay: SeAP reporter assay: FRBL-Caspase9 plus FKBPv12-Caspase9 heterodimerization; type: cell-based; details: FRBL-Caspase 9 plus FKBPV12-Caspase 9
Description: HEK 293T cells (5×10^5) were seeded on a 100-mm tissue culture dish in 10 mL DMEM4500, supplemented with glutamine, penicillin/streptomycin and 10% fetal calf serum. After 16-30 hours incubation, cells were transfected using Novagen's GeneJuice® protocol. Briefly, for each transfection, 0.5 mL OptiMEM was pipetted into a 1.5-mL microcentrifuge tube and 15 μL GeneJuice reagent added followed by 5 sec. vortexing. Samples were rested 5 minutes to settle the GeneJuice suspension. DNA (5 μg total) was added to each tube and mixed by pipetting up and down four times. Samples were allowed to rest for 5 minutes for GeneJuice-DNA complex formation and the suspension added dropwise to one dish of 293T cells. […]
24 hours after drug stimulation, 96-well plates were wrapped to prevent evaporation and incubated at 65° C. for 2 hours to inactivate endogenous and serum phosphatases while the heat-stable SeAP reporter remains (1, 4, 12). […] Phosphatase activity was measured by fluorescence with excitation at 355 nm and emission at 460 nm. […]
FIG. 37—Drug induced programmed cell death by homodimerization or heterodimerization of tagged caspase 9. […] Reporter activity is expressed as a percentage of the average of 8 control wells containing no drug. […]
FIG. 38—Rapalog-induced cell death switch. […] Reporter activity is expressed as a percentage of the average of 8 wells containing no drug. […]

In the case of COC1CC(CC(C)C2CC(=O)C(C)C=C(C)C(O)C(OC)C(=O)C(C)CC(C)C=CC=CC=C(C)C(OC(C)C)CC3CCC(C)C(O)(O3)C(=O)C(=O)N3CCCCC3C(=O)O2)CCC1O (centres unmarked) [C7-isopropoxy-rapamycin, C7-isopropoxyrapamycin], the “activation of FRBL2-Caspase-9” value (293 cells) is reported as “activated” and the “cell death (loss of SeAP reporter)” value (293T cells) is reported as “dose-dependent high efficacy cell death switch”.
